Measured values reported in patent US10548862B2, “Topical formulation and method for preventing or treating acne” (Gongwin Biopharm Holdings Co., Ltd., priority 2017, dated 2020).
In brackets after ≈: the same amount, converted by molar mass.

Experiment: Solubility of p-TSA in various solvents
Assay type: physicochemical
Conditions: thermodynamic from solid

## Cc1ccc(S(N)(=O)=O)cc1 [p-TSA, p-Toluenesulfonamide]
Aqueous with cosolvent or surfactant or cyclodextrin, in 20% 7-sulfobutyl-ether-β-cyclodextrin (SBEβCD), n = 3
  solubility: 17.6 mg/mL (≈ 103 mM)
Organic solvent or mixture, in Absolute ethanol, n = 3
  solubility: 108 mg/mL (≈ 628 mM)
Organic solvent or mixture, in Dimethyl sulfoxide (DMSO), n = 3
  solubility: 786 mg/mL (≈ 4590 mM)
Organic solvent or mixture, in Glycerol, n = 3
  solubility: 28.4 mg/mL (≈ 166 mM)
Organic solvent or mixture, in Glycofurol 75, n = 3
  solubility: 443 mg/mL (≈ 2590 mM)
Organic solvent or mixture, in Polyethylene glycol 400 (PEG-400), n = 3
  solubility: 467 mg/mL (≈ 2720 mM)
Organic solvent or mixture, in Propylene glycol (PG), n = 3
  solubility: 118 mg/mL (≈ 688 mM)
